In patent publication US20260234630A1, “Methods for Treating Multiple Myeloma” (Celgene Corporation, priority 2022, published 2026):

Tests used:
[1] = system: multiple myeloma (MM) cells; test: (3H)-thymidine incorporation assay of MM cell lines; type: cell-based; details: POM 3 days
Procedure: (§1) FIG. 1A-1F. Down regulation of UHRF1 transcription by IMiDs correlates with drug sensitivity of multiple myeloma. (1A) Volcano plot of protein expression changes determined by mass spectrometry in H929 cells at 24 hr of treatment with CC-220 (0.1 μM) or DMSO control. X axis, Log2fold change (FC); Y axis, significance,-log 10 [p-value]. […] (1B) Volcano plot of gene expression changes determined by Affymetrix microarray in H929 cells treated with POM (1 μM) or DMSO for 24 hr. X axis, Log2fold change (FC); Y axis, significance,-log 10 [p-value], n=2 technical replicates). […] (1C) Western blot analysis protein expression of UHRF1, Ikaros, Aiolos and ZFP91 in H929 cells treated with 1 μM POM for indicated time. (1D) qRT-PCR analysis of UHRF1 gene expression levels in cells as in (1C). Error bars represent the SEM from duplicate measurements. (1E) Western blot analysis protein expression of UHRF1 and indicated proteins in MM cells treated with DMSO (−) or 1 μM POM (+) for 3 days. GAPDH serves as a loading control. (1F) Thymidine incorporation of various MM cell lines treated with indicated dose of POM for 3 days. Error bars represent the SEM from technical replicates.
(3H)-thymidine incorporation assay was performed as previously described (PMID: 23252516) with minor modifications. Briefly, 1×10^4 or 2×10^5 multiple myeloma (MM) cells were cultured in 96-well culture plates in complete media with the indicated concentration of pomalidomide (POM) or DMSO control for 3 days. 37 kBg (3H)-thymidine was added to each will at the final 6 hour of incubation.

UHRF1 = test: Western blot of UHRF1 protein in MM cells; type: cell-based
Procedure: as §1
FIG. 2A-2E. UHRF1 expression is positively regulated by Ikaros and Aiolos in IMiDs sensitive MM cells. (2A) Western blot analysis protein expression of UHRF1, Ikaros, Aiolos, ZFP91 and Cereblon expression in control [shLuciferase (shLuc)] and cereblon knockdown (shCRBN) H929 cells treated with DMSO and 1 μM POM for 3 days. GAPDH, loading control. Arrow head, UHRF1. (2B) qRT-PCR analysis of UHRF1 gene expression levels in cells as in (2A). Data was normalized to ACTB. Error bars represent the SEM of technical duplicates. *** P<0.001 (Two-tailed unpaired Student's t-test). (2C) Western blot analysis protein expression of UHRF1, Ikaros and Aiolos in stably transduced H929 cells after Dox induction (0, 10, 50 or 100 ng/ml) for 3 days of non-target shRNA (shNT) or shRNAs targeting Ikaros (shIKZF1) or Aiolos (shIKZF3). (2D) qRT-PCR analysis of UHRF1 gene expression levels in cells as in (2C). Shown are cells induced with Dox (50 ng/ml) for 3 days. Data was normalized to GAPDH. Error bars represent the SEM of technical duplicates. *P<0.05, ** P<0.01, *** P<0.001, **** P<0.0001 (Two-tailed unpaired Student's t-test). (2E) ChIP-qPCR analysis of the occupancy Aiolos (upper panel) or H3K27ac (lower panel) occupancy at transcription star site (TSS), gene body (+7 kb) and gene end (GE) of UHRF1 gene in H929, MM1.S or RPMI 8226 cells treated with DMSO or 1 μM POM for 24 hr. ChIP with control rabbit IgG (IgG) serves as a negative control. Error bars represent the SEM of technical triplicates. * P<0.05, ** P<0.01, **** P<0.0001 (Two-tailed unpaired Student's t-test).
FIG. 6A-6D. […]

Nc1cccc2c1C(=O)N(C1CCC(=O)NC1=O)C2=O (centres unmarked) [POM, pomalidomide]
drug sensitivity of cell lines ([1]; H929, MM1.S, DF15 and U266): sensitive
drug sensitivity of cell lines ([1]; H929 PR and DF15 PR (diminished cereblon expression)): acquired resistance
drug sensitivity of cell line ([1]; MC/CAR): less sensitive
drug sensitivity of cell line ([1]; RPMI 8226): intrinsically resistant
time to profound reduction of UHRF1 protein level (UHRF1; H929 cells, POM 1 μM, time course): ≤ 48 h
UHRF1 protein levels (UHRF1; MC/CAR and RPMI 8226 cells, 1 μM POM, 3 days): without affecting
UHRF1 expression level (UHRF1; sensitive cell lines H929, MM1.S, DF15 and U266, 1 μM POM, 72 hours): downregulated
downregulation of UHRF1 protein by POM under cereblon knockdown (UHRF1; shCRBN vs shLuc H929 cells, 1 μM POM, 3 days): rescued
